# Literature values as cited in US9107941B2, “Methods and compositions for reducing L-pipecolic acid effects in animals” (SarTec Corporation, priority 2006, dated 2015).
# Legend:
# chicks = conditions: ICV injection
smiles,measurement,setting,value
"O=C(O)[C@@H]1CCCCN1 [L-PIP, L-pipecolic acid]",food intake,chicks,inhibited food intake
same,sleep-like behavior,chicks,induced sleep-like behavior
same,apoptosis in neuronal cells,neuronal cells,induce apoptosis
